Measurements reported in patent US20160237406A1, “SEBOCYTES, SEBOCYTE CELL LINES AND APPLICATIONS THEREOF” (priority 2001, published 2016).

System: immortalized sebocytes (SZ95) and clones
Experiment: Growth behavior / cell proliferation test (4-methylumbelliferyl heptanoate fluorescence assay)
Assay type: cell-based, human
Settings: for proliferation response of clones stimulated by retinoids: other clones, corresponds to response of normal human epidermal keratinocytes; for proliferation response of clones stimulated by retinoids / proliferation response of clones inhibited by retinoids: 10^-7 M retinoid, 9 days, FIG. 9; for proliferation response of clones inhibited by retinoids: some clones, order 13-cis-retinoic acid>all-trans-retinoic acid>>Acitretin
Experimental: _Cells were seeded in 96 well culture plates at densities of 0.5 to 4×10^3 cell/well. Cell proliferation was assessed by the 4-methylumbelliferylheptanoatefluorescence assay and measured automatically (Zouboulis et al. Melanoma. Res. 1991; 1:91-95).
To this extent, on the day of evaluation, the culture medium was removed, the cells were washed twice with PBS and […] 100 μg solution of 4-methylumbelliferyl heptanoate (Sigma, Deisenhofen, Germany) in PBS were added to each well. The plates were then incubated at 37° C. for 30 minutes and released fluorescence was measured by a suitable fluorescence measuring device (Titertec-Fluoroscan II; Flow, Meckenheim, Germany). Fluorescence units were obtained at 355 nm excitation and 460 nm emission filters.
_5α-dihydrctestosterone (5α-DHT; Sigma) was dissolved in DMSO and subsequently in serum-free, phenol-free modified DMEM/Ham's F12-Medium (1:1) (Gibco-BRL) with 2 mM n-Acetyl-L-alanyl-L-glutamine which was supplemented with 5 ng/ml EGF, 50 μg/ml bovine pituary extract, 1 mg/ml fatty acid-free bovine serum albumine (Boehringer Mannheim) and 50 μg/ml gentamycine to obtain a final concentration of 10^−6 M 5α-DHT and 0.1% DMSO. 0.1% DMSO alone served as a control. The cells (0.5 to 2×10^3/well) were treated with 5α-DHT for 18 days.
For the treatment with retinoids, all-trans-retinoic acid, 13-cis-retinoic acid and acitretin were dissolved in DMSO and subsequently placed in serum-free modified DME-Medium/Ham's F12-Medium (1:1) with […] N-Acetyl-L-alanyl-L-glutamine which was supplemented with 5 ng/ml EGE, 50 μg/ml bovine pituary extract, 1 mg/ml fatty acid-free bovine serum albumine and 50·μg/ml gentamycine to obtain a final concentration of 10^−7 M retinoid and 0,1% DMSO. 0,1% DMSO alone served as a control. Retinoids were handled under dim amber light. The cells (0.5 to 1×10^3/well) were treated with the retinoids for 9 days.

Row | Compound | effect on proliferation of the cells (10^-6 M 5α-DHT, serum-free medium, after the 8th day, vs control (p<0.05; p<0.01), FIG. 8) | population doubling time (exemplary sebocyte clone, seeding 2.000/well, serum-free medium supplemented with 10^-6 M 5α-DHT, 18 days, control 136 hours) [h] | proliferation response of clones stimulated by retinoids (serum-free medium) | proliferation response of clones inhibited by retinoids (serum-free medium)
1 | C[C@]12CCC(=O)C[C@@H]1CC[C@@H]1[C@@H]2CC[C@]2(C)[C@@H](O)CC[C@@H]12 [5α-DHT, 5α-dihydrctestosterone] | increased the proliferation of the cells significantly | 53.7 | – | –
2 | CC1=C(/C=C/C(C)=C/C=C/C(C)=C\C(=O)O)C(C)(C)CCC1 [13-cis-retinoic acid] | – | – | stimulated in proliferation | inhibition of proliferation
3 | COc1cc(C)c(/C=C/C(C)=C/C=C/C(C)=C/C(=O)O)c(C)c1C [Acitretin, acitretin] | – | – | – | inhibition of proliferation
4 | CC1=C(/C=C/C(C)=C/C=C/C(C)=C/C(=O)O)C(C)(C)CCC1 [all-trans-retinoic acid] | – | – | stimulated in proliferation | inhibition of proliferation
